Experiments:
Assay type in all cases: ADME, Microsome
Liver microsomes [1] = assay: Metabolic stability in rat liver microsomes assessed as covalent binding at 10 uM after 1 hr preincubated for 15 mins with NADPH by scintillation counting
Liver microsomes [2] = assay: Metabolic stability in rat liver microsomes assessed as covalent binding at 10 uM after 1 hr by scintillation counting in absence of NADPH
Liver microsomes [3] = assay: Metabolic stability in rat liver microsomes assessed as covalent binding at 10 uM after 1 hr by scintillation counting in presence of glutathione
Liver microsomes [4] = assay: Metabolic stability in human liver microsomes assessed as covalent binding at 10 uM after 1 hr by scintillation counting in absence of NADPH
Liver microsomes [5] = assay: Metabolic stability in human liver microsomes assessed as covalent binding at 10 uM after 1 hr preincubated for 15 mins with NADPH by scintillation counting

- Stability (Liver microsomes [1]): 378 pmolequiv/mg
- Stability (Liver microsomes [2]): 0 pmolequiv/mg
- Stability (Liver microsomes [3]): 50 pmolequiv/mg
- Stability (Liver microsomes [4]): 10 pmolequiv/mg
- Stability (Liver microsomes [5]): 715 pmolequiv/mg
Compound: C[C@@H](CO)Oc1cc(Oc2ccc(S(C)(=O)=O)cc2)cc(C(=O)Nc2nccs2)c1

Source: ChEMBL document CHEMBL1154966, “Metabolic activation of N-thiazol-2-yl benzamide as glucokinase activators: Impacts of glutathione trapping on covalent binding” (Bioorg Med Chem Lett, 2010)
